One assay deals with hES cells. The assay can be described thus: Cell adhesion assay, 1 hour (Example 2). The conditions noted are these: compared with Matrigel or LN-111, not shown. The format is cell-based, human. The procedure:
Tissue cell culture plates were coated overnight at 4° C. with sterile solutions of the ECM proteins, such as human recombinant LN-521, all at a concentration of 30 μg/ml (5 μg/cm^2). Control plates were coated with Matrigel according to the STEMCELL Technologies' instructions. Prior to use, dishes were pre-warmed in an incubator for one hour after which prewarmed O3 medium was added without additional washing of the dish. After applying a fresh LN-521 solution to a new dish, the remaining LN-521 solution could be used at least once more. All the adhesion, survival, and inhibition of survival experiments were carried out using fresh coating materials.
Briefly, 96-well plates were coated by extracellular matrix proteins as described above and blocked by O3 medium containing bovine serum albumin. The ES cells were plated at cell density of 50,000 cells/cm^2 onto extracellular matrix-coated plates and left to adhere for 1 hour in a cell incubator. After that the plates were washed 3 times with the medium to remove the non-adherent cells, and then the adherent cells were fixed for 20 minutes by 5% glutaraldehyde, stained by 0.1% Crystal Violet. (Kebo Lab, Spanga, Sweden, http://www.kebolab.se). After one hour and 3 washes with water, Crystal Violet was extracted with 10% acetic acid and quantified by measuring optical density at 570 nm. All the experiments were performed in quadruplicate.

For assay [1], the system named is human embryonic stem cells. Put plainly: Survival of hES cells plated in single cell suspension on precoated dishes (description). The conditions noted are these: O3 medium, 30 Kcells/cm^2. The format is cell-based. From the text:
In other aspects, the present disclosure provides a new material, isolated laminin-521, which permits human embryonic stem cell survival after dissociation into single cell suspension. The stem cells were dissociated into single cell suspension by Trypsin-EDTA treatment, pelleted by centrifugation, resuspended into O3 medium, filtered through a 40 μm sieve, and plated at a density of 30 Kcells/cm^2 on cell culture dishes precoated by either isolated laminin-521, laminin-511, or Matrigel. After one day in culture, the cells plated on Matrigel died, as is known in the art.

Turning to “LN-521: protein formed by joining α5, β2 and γ1 laminin chains; human recombinant, produced in HEK293 cells”, the “spreading of the cells after one hour” value with hES cells is reported as “clearly better”. For the same substance, in assay [1], the “survival of human embryonic stem cells after one day in culture” value was “survived and started to proliferate”.

Source of the values: patent US10240124B2, “Cell culture substrate comprising a laminin and a cadherin” (BioLamina AB, priority 2011, dated 2019).
